Results as given in PubChem BioAssay (NCI).
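All cell lines were grown in 96-well plates and treated with compound for 48 hours. TGI is the concentration that stops growth completely.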

Experiments:
Test in all cases: inhibition of tumour cell growth, NCI panel, 48 h
[1] = system: HCC-2998 colon
[2] = system: 786-0 renal
[3] = system: MOLT-4 leukemia
[4] = system: HCT-15 colon
[5] = system: HOP-92 NSCLC
[6] = system: RPMI-8226 leukemia
[7] = system: KM12 colon
[8] = system: M14 melanoma
[9] = system: DU-145 prostate
[10] = system: HS 578T breast
[11] = system: PC-3 prostate
[12] = system: OVCAR-4 ovarian
[13] = system: MDA-MB-435
[14] = system: HL-60(TB) leukemia
[15] = system: OVCAR-5 ovarian
[16] = system: BT-549 breast
[17] = system: SK-MEL-2 melanoma
[18] = system: SF-539 CNS
[19] = system: A498 renal
[20] = system: SNB-75 CNS
[21] = system: HOP-62 NSCLC
[22] = system: NCI-H460 lung
[23] = system: LOX IMVI melanoma
[24] = system: CCRF-CEM leukemia
[25] = system: T-47D breast
[26] = system: MALME-3M melanoma
[27] = system: NCI/ADR-RES ovarian
[28] = system: HT29 colon
[29] = system: COLO 205 colon
[30] = system: MCF7 breast
[31] = system: MDA-MB-231 breast
[32] = system: K-562 leukemia
[33] = system: TK-10 renal
[34] = system: UACC-62 melanoma
[35] = system: NCI-H23 lung
[36] = system: UO-31 renal
[37] = system: SNB-19 CNS
[38] = system: HCT-116 colon
[39] = system: SF-295 CNS
[40] = system: SK-MEL-28 melanoma
[41] = system: SF-268 CNS
[42] = system: SK-OV-3 ovarian
[43] = system: RXF 393 renal
[44] = system: A549 NSCLC
[45] = system: NCI-H522 lung
[46] = system: ACHN renal
[47] = system: EKVX NSCLC
[48] = system: SR leukemia
[49] = system: IGROV1 ovarian
[50] = system: MDA-N
[51] = system: OVCAR-3 ovarian
[52] = system: NCI-H226 lung
[53] = system: U251 CNS
[54] = system: CAKI-1 renal
[55] = system: SK-MEL-5 melanoma
[56] = system: SW-620 colon
[57] = system: SN12C renal
[58] = system: UACC-257 melanoma

`NCCNc1nc(N2CCCC2)c2nc(Cl)c(NCc3ccccc3)nc2n1` showed a TGI [1] of 2.88 µM, a TGI [2] of 3.08 µM and a TGI [3] of 4.48 µM. For the same molecule, the TGI [4] was 3.84 µM, the TGI [5] was 6.1 µM and the TGI [6] was 3.84 µM. The TGI [7] was 2.93 µM, the TGI [8] was 3.16 µM and the TGI [9] was 3.55 µM. It also gave a TGI [10] of 12.8 µM, a TGI [11] of 7.62 µM and a TGI [12] of 5.3 µM. For the same molecule, the TGI [13] was 3.19 µM, the TGI [14] was 3.99 µM and the TGI [15] was 7.88 µM. For the same molecule, the TGI [16] was 4.12 µM, the TGI [17] was 3.37 µM and the TGI [18] was 3.79 µM. It also gave a TGI [19] of 4.4 µM, a TGI [20] of 3.49 µM and a TGI [21] of 3.64 µM. It also gave a TGI [22] of 3.54 µM, a TGI [23] of 3.06 µM and a TGI [24] of 6.87 µM. The TGI [25] was 3.79 µM, the TGI [26] was 3.73 µM and the TGI [27] was 33.1 µM. The TGI [28] was 5.46 µM, the TGI [29] was 3.29 µM and the TGI [30] was 3.31 µM. The TGI [31] was 2.87 µM, the TGI [32] was 0.182 µM and the TGI [33] was 3.25 µM. For the same molecule, the TGI [34] was 3.19 µM, the TGI [35] was 5.46 µM and the TGI [36] was 3.32 µM. It also gave a TGI [37] of 3.91 µM, a TGI [38] of 2.93 µM and a TGI [39] of 3.5 µM. The TGI [40] was 3.39 µM, the TGI [41] was 3.81 µM and the TGI [42] was 3.79 µM. The TGI [43] was 2.91 µM, the TGI [44] was 3.36 µM and the TGI [45] was 3.31 µM. For the same molecule, the TGI [46] was 3.99 µM, the TGI [47] was 4.36 µM and the TGI [48] was 2.95 µM. The TGI [49] was 4.7 µM, the TGI [50] was 3.1 µM and the TGI [51] was 4.16 µM. For the same molecule, the TGI [52] was 15.7 µM, the TGI [53] was 2.87 µM and the TGI [54] was 15.2 µM. The TGI [55] was 3.27 µM, the TGI [56] was 4.73 µM and the TGI [57] was 2.92 µM. The TGI [58] was 4 µM.
